The results in this text go back to patent US20100035866A1, “NOVEL SUBSTITUTED-1, 1-DIOXO-BENZO[1,2,4]THIADIAZIN-3ONES, PREPARATION METHOD THEREOF, AND PHARMACEUTICAL COMPOSITION CONTAINING THE SAME” (KOREA RESEARCH INSTITUTE OF CHEMICAL TECHNOLOGY, priority 2006, published 2010).

Data set [1] addresses Human serotonin 5-HT6 receptor (Homo sapiens, UniProt P50406). The experiment in a line: [3H]LSD binding assay on cloned 5-HT6 receptor. Conditions: IC50 (nM), binding affinity to the 5-HT6 receptor, Table 2; 1.87 nM [3H]LSD, cloned human receptor membranes from Sf21 cells, 37° C. 60 min.

Molecules are shown by their SMILES.

Sequence of Human serotonin 5-HT6 receptor (P50406 whole entry): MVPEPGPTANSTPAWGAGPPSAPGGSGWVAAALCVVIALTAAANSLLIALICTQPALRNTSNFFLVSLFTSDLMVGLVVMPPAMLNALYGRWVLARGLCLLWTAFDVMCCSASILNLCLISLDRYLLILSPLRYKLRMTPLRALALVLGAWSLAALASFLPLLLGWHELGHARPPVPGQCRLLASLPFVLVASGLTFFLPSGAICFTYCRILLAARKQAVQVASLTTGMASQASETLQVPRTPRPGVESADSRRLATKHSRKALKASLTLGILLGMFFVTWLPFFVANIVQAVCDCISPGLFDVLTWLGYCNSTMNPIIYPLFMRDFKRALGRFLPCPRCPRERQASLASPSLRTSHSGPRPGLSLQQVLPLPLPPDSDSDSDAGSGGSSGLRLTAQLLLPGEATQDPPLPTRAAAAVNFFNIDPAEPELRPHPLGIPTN

On to `C[C@@H]1CN(c2cc(Cl)cc3c2S(=O)(=O)N(Cc2ccccc2Cl)C(=O)N3Cc2ccccc2)CCN1` [Example 71, 4-Benzyl-6-chloro-2-(2-chloro-benzyl)-8-[(R)-3-methyl-piperazin-1-yl]-1,1-dioxo-1,4-dihydro-2H-1λ^6-benzo[1,2,4]thiadiazin-3-one], for which the melting point fell in the range of 134 to 136 °C. This molecule also yielded an IC50 in data set [1] of 147 nM.

`O=C1N(Cc2ccccc2)c2cc(Cl)cc(N3CCOCC3)c2S(=O)(=O)N1Cc1ccccc1Cl` [Example 69, 4-Benzyl-6-chloro-2-(2-chloro-benzyl)-8-morpholin-4-yl-1,1-dioxo-1,4-dihydro-2H-1λ^6-benzo[1,2,4]thiadiazin-3-one] displayed a melting point of 171 to 172 °C. In data set [1], this molecule registered an IC50 greater than 1000 nM.

In turn, `CN1CCN(c2cc(Cl)cc3c2S(=O)(=O)N(Cc2ccccc2[N+](=O)[O-])C(=O)N3Cc2ccccc2)CC1` [Example 20, 4-Benzyl-6-chloro-8-(4-methyl-piperazin-1-yl)-2-(2-nitro-benzyl)-1,1-dioxo-1,4-dihydro-2H-1λ^6-benzo[1,2,4]thiadiazin-3-one] displayed a melting point of 84 to 86 °C. The molecule further displayed an IC50 in data set [1] of 12.3 nM.

The molecule `O=C1N(Cc2ccccc2)c2cc(Cl)cc(N3CCNCC3)c2S(=O)(=O)N1Cc1ccccc1F` [Example 45, 4-Benzyl-6-chloro-2-(2-fluoro-benzyl)-1,1-dioxo-8-piperazin-1-yl-1,4-dihydro-2H-1λ^6-benzo[1,2,4]thiadiazin-3-one] registered a melting point of 120 to 121 °C. For the same molecule, the IC50 in data set [1] was found to be 18.7 nM.

Molecule `CN1CCN(c2cc(Cl)cc3c2S(=O)(=O)N(Cc2ccc(I)cc2)C(=O)N3Cc2ccccc2)CC1` [Example 12, 4-Benzyl-6-chloro-2-(4-iodo-benzyl)-8-(4-methyl-piperazin-1-yl)-1,1-dioxo-1,4-dihydro-2H-1λ^6-benzo[1,2,4]thiadiazin-3-one] registered a melting point of 110 to 111 °C. In addition, in data set [1], the IC50 was 1.4 nM.

Regarding `CN1CCN(c2cc(Cl)cc3c2S(=O)(=O)N(Cc2cccc([N+](=O)[O-])c2)C(=O)N3Cc2ccccc2)CC1` [Example 21, 4-Benzyl-6-chloro-8-(4-methyl-piperazin-1-yl)-2-(3-nitro-benzyl)-1,1-dioxo-1,4-dihydro-2H-1λ^6-benzo[1,2,4]thiadiazin-3-one], the melting point was 172 to 175 °C. The molecule also registered an IC50 in data set [1] of 4.2 nM.

For `O=C1N(Cc2ccccc2)c2cc(Cl)cc(N3CCNCC3)c2S(=O)(=O)N1Cc1ccc(I)cc1` [Example 49, 4-Benzyl-6-chloro-2-(4-iodo-benzyl)-1,1-dioxo-8-piperazin-1-yl-1,4-dihydro-2H-1λ^6-benzo[1,2,4]thiadiazin-3-one], the melting point was 153 to 154 °C. For the same molecule, in data set [1], the half-inhibitory concentration (IC50) was 17.1 nM.

`COC(=O)c1ccc(CN2C(=O)N(Cc3ccccc3)c3cc(Cl)cc(N4CCN(C)CC4)c3S2(=O)=O)cc1` [Example 23, 4-[4-Benzyl-6-chloro-8-(4-methyl-piperazin-1-yl)-1,1,3-trioxo-3,4-dihydro-1H-1λ^6-benzo[1,2,4]thiadiazin-2-ylmethyl]-benzoic acid methyl ester] returned a melting point of 140 to 143 °C. The molecule further had an IC50 in data set [1] of 28.8 nM.

In the case of `CN1CCN(c2cc(Cl)cc3c2S(=O)(=O)N(Cc2ccc(F)cc2)C(=O)N3Cc2ccccc2)CC1` [Example 4, 4-Benzyl-6-chloro-2-(4-fluoro-benzyl)-8-(4-methyl-piperazin-1-yl)-1,1-dioxo-1,4-dihydro-2H-1λ^6-benzo[1,2,4]thiadiazin-3-one], the melting point lay in the range of 112 to 113 °C. Moreover, in data set [1], the IC50 turned out to be 5.4 nM.

As to `O=C1N(Cc2ccccc2)c2cc(Cl)cc(N3CCN4CCC[C@H]4C3)c2S(=O)(=O)N1Cc1ccccc1Cl` [Example 73, 4-Benzyl-6-chloro-2-(2-chloro-benzyl)-8-[(6S)-1,4-diazabicyclo[4.3.0]non-4-yl]-1,1-dioxo-1,4-dihydro-2H-1λ^6-benzo[1,2,4]thiadiazin-3-one], the melting point lay within 143 to 144 °C. The same molecule yielded an IC50 in data set [1] of 16 nM.

Regarding `CCN1C(=O)N(Cc2ccccc2)c2cc(Cl)cc(N3CCNCC3)c2S1(=O)=O` [Example 64, 4-Benzyl-6-chloro-2-ethyl-1,1-dioxo-8-piperazin-1-yl-1,4-dihydro-2H-1λ^6-benzo[1,2,4]thiadiazin-3-one], the melting point is 158 to 161 °C. Besides, the IC50 in data set [1] was 4.6 nM.

With `CN1CCN(c2cc(Cl)cc3c2S(=O)(=O)N(Cc2ccccc2Br)C(=O)N3Cc2ccccc2)CC1` [Example 8, 4-Benzyl-2-(2-bromo-benzyl)-6-chloro-8-(4-methyl-piperazin-1-yl)-1,1-dioxo-1,4-dihydro-2H-1λ^6-benzo[1,2,4]thiadiazin-3-one], the melting point fell in the range of 107 to 109 °C. Moreover, in data set [1], the IC50 worked out at 8.9 nM.

Take `CN1CCN(c2cc(Cl)cc3c2S(=O)(=O)N(Cc2ccc(C#N)cc2)C(=O)N3Cc2ccccc2)CC1` [Example 24, 4-[4-Benzyl-6-chloro-8-(4-methyl-piperazin-1-yl)-1,1,3-trioxo-3,4-dihydro-2H-1λ^6-benzo[1,2,4]thiadiazin-2-ylmethyl]-benzonitrile]: the melting point lay within 134 to 135 °C. Besides, the IC50 in data set [1] turned out to be 6.4 nM.

`COc1ccc(N2C(=O)N(Cc3ccccc3)c3cc(Cl)cc(N4CCN(C)CC4)c3S2(=O)=O)cc1` [Example 30, 4-Benzyl-6-chloro-2-(4-methoxy-phenyl)-8-(4-methyl-piperazin-1-yl)-1,1-dioxo-1,4-dihydro-2H-1λ^6-benzo[1,2,4]thiadiazin-3-one] registered a melting point of 115 to 116 °C. The molecule further registered an IC50 in data set [1] of 5.2 nM.

Consider `CN1CCN(c2cc(Cl)cc3c2S(=O)(=O)N(Cc2ccc([N+](=O)[O-])cc2)C(=O)N3Cc2ccccc2)CC1` [Example 22, 4-Benzyl-6-chloro-8-(4-methyl-piperazin-1-yl)-2-(4-nitro-benzyl)-1,1-dioxo-1,4-dihydro-2H-1λ^6-benzo[1,2,4]thiadiazin-3-one], for which the melting point is 163 to 164 °C. The molecule further gave an IC50 in data set [1] of 8.1 nM.

Take `O=C1N(Cc2ccccc2)c2cc(Cl)cc(N3CCN4CCCC[C@@H]4C3)c2S(=O)(=O)N1Cc1ccccc1Cl` [Example 75, 4-Benzyl-6-chloro-2-(2-chloro-benzyl)-8-[(6R)-1,4-diazabicyclo[4.4.0]dec-4-yl]-1,1-dioxo-1,4-dihydro-2H-1λ^6-benzo[1,2,4]thiadiazin-3-one]: the melting point fell in the range of 157 to 159 °C. The IC50 in data set [1] worked out at 396 nM.

Regarding `CN1CCN(c2cc(Cl)cc3c2S(=O)(=O)N(Cc2ccncc2)C(=O)N3Cc2ccccc2)CC1` [Example 42, 4-Benzyl-6-chloro-8-(4-methyl-piperazin-1-yl)-1,1-dioxo-2-pyridin-4-ylmethyl-1,4-dihydro-2H-1λ^6-benzo[1,2,4]thiadiazin-3-one], the melting point was in the range of 107 to 108 °C. The same molecule yielded an IC50 in data set [1] of 7.7 nM.

`COc1ccccc1CN1C(=O)N(Cc2ccccc2)c2cc(Cl)cc(N3CCN(C)CC3)c2S1(=O)=O` [Example 16, 4-Benzyl-6-chloro-2-(2-methoxy-benzyl)-8-(4-methyl-piperazin-1-yl)-1,1-dioxo-1,4-dihydro-2H-1λ^6-benzo[1,2,4]thiadiazin-3-one] registered a melting point of 93 to 94 °C. Also, the IC50 in data set [1] turned out to be 4.6 nM.

The molecule `O=C1N(Cc2ccccc2)c2cc(Cl)cc(N3CCNCC3)c2S(=O)(=O)N1Cc1cccc2ccccc12` [Example 68, 4-Benzyl-6-chloro-2-naphthalen-1-ylmethyl-1,1-dioxo-8-piperazin-1-yl-1,4-dihydro-2H-1λ^6-benzo[1,2,4]thiadiazin-3-one] gave a melting point of 164 to 166 °C. Besides, the IC50 in data set [1] worked out at 6.9 nM.

`O=C1N(Cc2ccccc2)c2cc(Cl)cc(N3CCN(c4ccccn4)CC3)c2S(=O)(=O)N1Cc1ccccc1Cl` [Example 70, 4-Benzyl-6-chloro-2-(2-chloro-benzyl)-1,1-dioxo-8-(4-pyridin-2-yl-piperazin-1-yl)-1,4-dihydro-2H-1λ^6-benzo[1,2,4]thiadiazin-3-one] showed a melting point of 159 to 161 °C. This molecule also registered an IC50 in data set [1] greater than 1000 nM.

In turn, `O=C1N(Cc2ccccc2)c2cc(Cl)cc(N3CCNCC3)c2S(=O)(=O)N1Cc1ccccc1Cl` [Example 47, 4-Benzyl-6-chloro-2-(2-chloro-benzyl)-1,1-dioxo-8-piperazin-1-yl-1,4-dihydro-2H-1λ^6-benzo[1,2,4]thiadiazin-3-one] had a melting point of 126 to 127 °C. In data set [1], this molecule yielded a concentration for half-maximal inhibition (IC50) of 15.9 nM.

Molecule `C[C@H]1CN(c2cc(Cl)cc3c2S(=O)(=O)N(Cc2ccccc2Cl)C(=O)N3Cc2ccccc2)CCN1` [Example 72, 4-Benzyl-6-chloro-2-(2-chloro-benzyl)-8-[(S)-3-methyl-piperazin-1-yl]-1,1-dioxo-1,4-dihydro-2H-1λ^6-benzo[1,2,4]thiadiazin-3-one] gave a melting point of 142 to 143 °C. Also, in data set [1], the IC50 was determined as 6.8 nM.

Molecule `COc1ccc(N2C(=O)N(Cc3ccccc3)c3cc(Cl)cc(N4CCNCC4)c3S2(=O)=O)cc1` [Example 63, 4-Benzyl-6-chloro-2-(4-methoxy-phenyl)-1,1-dioxo-8-piperazin-1-yl-1,4-dihydro-2H-1λ^6-benzo[1,2,4]thiadiazin-3-one] had a melting point of 155 to 156 °C. In data set [1], this molecule registered an IC50 of 28 nM.

For the molecule `Cc1ccc(CN2C(=O)N(Cc3ccccc3)c3cc(Cl)cc(N4CCN(C)CC4)c3S2(=O)=O)cc1` [Example 15, 4-Benzyl-6-chloro-2-(4-methyl-benzyl)-8-(4-methyl-piperazin-1-yl)-1,1-dioxo-1,4-dihydro-2H-1λ^6-benzo[1,2,4]thiadiazin-3-one], the melting point lay in the range of 180 to 185 °C. In addition, the half-maximal inhibitory concentration (IC50) in data set [1] turned out to be 5.4 nM.

For orientation: IC50 means the concentration that gives 50% inhibition. A higher IC50 goes with a need for much substance. One may read the melting point as the temperature, or range, at which the solid turns liquid.
